Data: patent US7183306B2, “Pyrazole derivatives” (Astellas Pharma Inc., priority 2002, dated 2007)

melting point	Structure (SMILES)
142 to 143 °C	COc1ccc(-n2nc(C3CC3)cc2-c2ccc(OCCNS(N)(=O)=O)cc2)cc1
132 to 133 °C	COc1ccc(-n2nc(C(=O)C3CC3)cc2-c2ccc(OCCO)cc2)cc1
130.9 to 131 °C	COc1ccc(-n2nc(C(C)C)cc2-c2ccc(CNS(C)(=O)=O)cc2)cc1
104 to 106 °C	COc1ccc(-n2nc(S(C)(=O)=O)cc2-c2ccc(OCCN)cc2)cc1
96 to 99 °C	COc1ccc(-n2nc(S(C)(=O)=O)cc2-c2ccc(OCCO)cc2)cc1
136.9 to 137.3 °C	COCOc1ccc(-c2cc([S+](C)[O-])nn2-c2ccc(OC)cc2)cc1 (centres unmarked)
207 to 209 °C	CCN(C)C(=O)c1cc(-c2ccc(OCCN)cc2)n(-c2ccc(OC)cc2)n1.Cl
78 to 80 °C	COC(=O)NCCc1ccc(-c2cc(C(F)(F)F)nn2-c2ccc(OC)cc2)cc1
139 to 140 °C	COc1ccc(-n2nc(OC(C)C)cc2-c2ccc(OCCNC(N)=O)cc2)cc1
155.8 to 155.9 °C	COc1ccc(-n2nc(C(=O)C(C)C)cc2-c2ccc(CNS(C)(=O)=O)cc2)cc1
146 to 147 °C	CCOc1cc(-c2ccc(OCCNS(C)(=O)=O)cc2)n(-c2ccc(OC)cc2)n1
144 to 145 °C	COc1ccc(-n2nc(C(=O)C(C)C)cc2-c2ccc(OCCNC(N)=O)cc2)cc1
108 to 111 °C	COc1ccc(-n2nc(OC)cc2-c2ccc(OCCNC(N)=O)cc2)cc1
92.2 to 92.5 °C	COc1ccc(-n2nc(OC)cc2-c2ccc(OCCO)cc2)cn1
86 to 87 °C	CCOC(=O)c1cc(-c2ccc(OCCO[Si](C)(C)C(C)(C)C)cc2)n(-c2ccc(OC)cc2)n1
147 to 152 °C	COc1ccc(-n2nc(C(C)(C)O)cc2-c2ccc(OCCNC(N)=O)cc2)cc1
107 to 109 °C	COc1ccc(-n2nc(OC)cc2-c2ccc(OCCO)cc2)cc1
186 to 189 °C	COc1ccc(-n2nc(C#N)cc2-c2ccc(OCCN)cc2)cc1.Cl
81 to 82 °C	CCOc1cc(-c2ccc(OCCO)cc2)n(-c2ccc(OC)nc2)n1
103 to 104 °C	COc1ccc(-n2nc(OC)cc2-c2ccc(OCCNS(C)(=O)=O)cc2)cc1
74 to 75 °C	COc1ccc(-n2nc(OC(C)C)cc2-c2ccc(OCCO)cc2)cn1
94 to 94.3 °C	COc1ccc(-n2nc(OC)cc2-c2ccc(CNS(C)(=O)=O)cc2)cc1
117 to 119 °C	COc1ccc(-n2nc(Cl)cc2-c2ccc(OCCNS(C)(=O)=O)cc2)cc1
82 to 86 °C	CO/N=C(\C)c1cc(-c2ccc(CCO)cc2)n(-c2ccc(OC)cc2)n1
148 to 150 °C	COc1ccc(-n2nc(-c3nc(C)no3)cc2-c2ccc(CCO)cc2)cc1

melting point	Structure (SMILES)
136.5 to 138.2 °C	COc1ccc(-n2nc(Cl)cc2-c2ccc(OCCO)cc2)cn1
125.5 to 126.2 °C	COc1ccc(-n2nc(Cl)cc2-c2ccc(CNC(N)=O)cc2)cc1
139.1 to 139.4 °C	COc1ccc(-n2nc(Cl)cc2-c2ccc(OCCNS(=O)(=O)CCO)cc2)cc1
157 to 158 °C	COc1ccc(-n2nc(C(F)(F)F)cc2-c2ccc(CCNC(N)=O)cc2)cc1
168 to 169 °C	COc1ccc(-n2nc(C(F)(F)F)cc2-c2ccc(OCC(N)=O)cc2)cc1
166 to 168 °C	COc1ccc(-n2nc(C3CC3)cc2-c2ccc(OCCNS(C)(=O)=O)cc2)cc1
149.8 to 150.8 °C	CCN(C)C(=O)c1cc(-c2ccc(CNS(C)(=O)=O)cc2)n(-c2ccc(OC)cc2)n1
68.3 to 69.3 °C	COc1ccc(-n2nc(Cl)cc2-c2ccc(CNS(C)(=O)=O)cc2)cc1
50.7 to 51.7 °C	COc1ccc(-n2nc(OCC(F)(F)F)cc2-c2ccc(OCCO)cc2)cc1
89 to 92 °C	COc1ccc(-n2nc(C(F)(F)F)cc2-c2ccc(CCO)cc2)cn1
142 to 144 °C	COc1ccc(-n2nc(C3CC3)cc2-c2ccc(OCCO)cc2)cc1
127 to 128 °C	COc1ccc(-n2nc(C(F)(F)F)cc2-c2ccc(CCNS(N)(=O)=O)cc2)cc1
129 to 142 °C	COc1ccc(-n2nc(C(=O)C(C)C)cc2-c2ccc(OCCN)cc2)cc1.Cl
162 to 163 °C	CCN(C)C(=O)c1cc(-c2ccc(CCNS(C)(=O)=O)cc2)n(-c2ccc(OC)cc2)n1
165 to 166 °C	COc1ccc(-n2nc(SC)cc2-c2ccc(OCCNS(C)(=O)=O)cc2)cc1
167.4 to 167.6 °C	COc1ccc(-n2nc(NC(=O)N(C)C)cc2-c2ccc(OCCO)cc2)cc1
166 to 167 °C	COc1ccc(-n2nc(NC(=O)N(C)C)cc2-c2ccc(OCCNS(C)(=O)=O)cc2)cc1
131 to 132 °C	COCCOc1cc(-c2ccc(OCCNC(N)=O)cc2)n(-c2ccc(OC)cc2)n1
155 °C	COc1ccc(-n2nc(C(=O)C(C)C)cc2-c2ccc(OCCNS(C)(=O)=O)cc2)cc1
229 to 231 °C	COc1ccc(-n2nc(C3CC3)cc2-c2ccc(OCCN)cc2)cc1.Cl [277]
91 to 92 °C	COc1ccc(-n2nc(C#N)cc2-c2ccc(OCCO)cc2)cc1
228 to 231 °C	COc1ccc(-n2nc(C3CC3)cc2-c2ccc(OCCN)cc2)cc1.Cl [322]
131 to 132 °C	COc1ccc(-n2nc(C(F)(F)F)cc2-c2ccc(CCS(N)(=O)=O)cc2)cc1
121.9 to 123.8 °C	COc1ccc(-n2nc(C(=O)N3CCCCC3)cc2-c2ccc(OCCO)cc2)cc1

More lines, now with the values behind:

Structure (SMILES)	melting point
COc1ccc(-n2nc(C(F)(F)F)cc2-c2ccc(CNS(C)(=O)=O)cc2)cn1	125 to 126 °C
COc1ccc(-n2nc(OC(C)C)cc2-c2ccc(OCCNC(N)=O)cc2)cn1	120 °C
COc1ccc(-n2nc(C(=O)C(C)C)cc2-c2ccc(CNS(C)(=O)=O)cc2)cn1	160.8 to 161.2 °C
CNS(=O)(=O)CCc1ccc(-c2cc(C(F)(F)F)nn2-c2ccc(OC)nc2)cc1	139 to 140 °C
CCN(C)C(=O)c1cc(-c2ccc(CCNS(C)(=O)=O)cc2)n(-c2ccc(OC)nc2)n1	137 to 138 °C
COc1ccc(-n2nc(OCC(F)F)cc2-c2ccc(OCCNC(N)=O)cc2)cn1	146.9 to 147.3 °C
COc1ccc(-n2nc(OCC(F)F)cc2-c2ccc(OCCNS(C)(=O)=O)cc2)cc1	145 to 145.1 °C
COc1ccc(-n2nc(C(F)(F)F)cc2-c2ccc(CCNC(N)=O)cc2)cn1	205 to 206 °C
COc1ccc(-n2nc(OCC(F)(F)F)cc2-c2ccc(OCCNC(N)=O)cc2)cn1	134.8 to 134.9 °C
COc1ccc(-n2nc(C(F)F)cc2-c2ccc(CNS(C)(=O)=O)cc2)cn1	125.7 to 126.1 °C
COc1ccc(-n2nc(C(=O)N3CCCCC3)cc2-c2ccc(OCCNC(N)=O)cc2)cn1	164 to 167 °C
COc1ccc(-n2nc(C(=O)N3CCCCC3)cc2-c2ccc(CNC(N)=O)cc2)cn1	178.9 °C
COc1ccc(-n2nc(OCC(F)(F)F)cc2-c2ccc(OCCNC(N)=O)cc2)cc1	130 to 132 °C
C=C(C)c1cc(-c2ccc(OCCNC(N)=O)cc2)n(-c2ccc(OC)nc2)n1	94 to 98 °C
COc1ccc(-n2nc(C(=O)C(C)C)cc2-c2ccc(OCCNS(C)(=O)=O)cc2)cn1	155.6 to 155.8 °C
COc1ccc(-n2nc(OC(C)C)cc2-c2ccc(OCCNS(C)(=O)=O)cc2)cc1	167.9 to 168 °C
COc1ccc(-n2nc(OC)cc2-c2ccc(OCCNC(N)=O)cc2)cn1	192.6 to 192.7 °C
COc1ccc(-n2nc(C(=O)N3CCCCC3)cc2-c2ccc(CNS(C)(=O)=O)cc2)cc1	179.3 to 179.6 °C
COc1ccc(-n2nc(C(C)C)cc2-c2ccc(OCCNC(N)=O)cc2)cn1	106 to 107 °C
COc1ccc(-n2nc(C(F)(F)F)cc2-c2ccc(CCNS(N)(=O)=O)cc2)cn1	114 to 115 °C

Structure (SMILES)	melting point
COc1ccc(-n2nc(C(F)(F)F)cc2-c2ccc(CCCS(C)(=O)=O)cc2)cn1	121 to 122 °C
COc1ccc(-n2nc(C(C)C)cc2-c2ccc(CNC(N)=O)cc2)cn1	139 to 144 °C
COc1ccc(-n2nc(OC(C)C)cc2-c2ccc(OCCNS(C)(=O)=O)cc2)cn1	121 to 121.6 °C
CCN(C)C(=O)c1cc(-c2ccc(OCCO)cc2)n(-c2ccc(OC)nc2)n1	110 to 111 °C
CCN(C)C(=O)c1cc(-c2ccc(OCCNS(C)(=O)=O)cc2)n(-c2ccc(OC)cc2)n1	106 to 106.3 °C
COc1ccc(-n2nc(OCC(F)(F)F)cc2-c2ccc(OCCNS(C)(=O)=O)cc2)cc1	131.3 to 131.4 °C
COc1ccc(-n2nc(C(=O)C(C)C)cc2-c2ccc(OCCO)cc2)cn1	108 to 109 °C
COc1ccc(-n2nc(C(F)F)cc2-c2ccc(CCNC(N)=O)cc2)cn1	194 to 196 °C
COc1ccc(-n2nc(C(=O)N3CCCCC3)cc2-c2ccc(CNS(C)(=O)=O)cc2)cn1	182.6 to 182.9 °C
COc1ccc(-n2nc(Cl)cc2-c2ccc(OCCNS(C)(=O)=O)cc2)cn1	112 to 114 °C
CCN(C)C(=O)c1cc(-c2ccc(CNC(N)=O)cc2)n(-c2ccc(OC)nc2)n1	172.6 to 172.8 °C
COc1ccc(-n2nc(Cl)cc2-c2ccc(CNC(N)=O)cc2)cn1	111 to 115 °C
COc1ccc(-n2nc(C(F)(F)F)cc2-c2ccc(CCC[S+](C)[O-])cc2)cn1 (centres unmarked)	92 to 93 °C
COCCOc1cc(-c2ccc(OCCNS(C)(=O)=O)cc2)n(-c2ccc(OC)cc2)n1	94.5 to 94.7 °C
COc1ccc(-n2nc(C(F)(F)F)cc2-c2ccc(CCNC(C)=O)cc2)cn1	97 to 98 °C
COc1ccc(-n2nc(C(=O)C(C)C)cc2-c2ccc(CNC(N)=O)cc2)cn1	157 to 157.3 °C
COc1ccc(-n2nc(OCC(F)(F)F)cc2-c2ccc(OCCO)cc2)cn1	91.2 to 91.3 °C
CCOCCOc1cc(-c2ccc(OCCNC(N)=O)cc2)n(-c2ccc(OC)cc2)n1	124.1 to 124.2 °C
CCN(C)C(=O)c1cc(-c2ccc(OCCNS(C)(=O)=O)cc2)n(-c2ccc(OC)nc2)n1	110 to 111 °C
CSc1ccc(-n2nc(C(F)F)cc2-c2ccc(OCCNS(C)(=O)=O)cc2)cc1	122.7 to 122.8 °C
